Measured values as given in patent US8076331B2, “Substituted pyridazine derivatives” (Cephalon, Inc., priority 2008, dated 2011).

Tests used:
human H3 receptor = target: T1, human H3 receptor (Homo sapiens, UniProt Q9Y5N1); test: Human H3 radioligand binding ([3H]-N-alpha-methylhistamine, CHO cell membranes); conditions: membranes of CHO cells stably expressing the human H3 receptor; [3H]-N-alpha-methylhistamine approx. 1 nM
T1 construct: expressed in transfected cells
Experimental: Methods: CHO cells stably expressing the human H3 receptor (GenBank: NM_007232) were harvested and cell pellets were frozen (—80° C.). Cell pellets were resuspended in 5 mM Tris-HCl, pH 7.5 with […] and a cocktail of protease inhibitors (Complete Protease Inhibitior Tablets, Roche Diagnostics). Cells were disrupted using a polytron cell homogenizer and the suspension was centrifuged at 1000×g for 10 minutes at 4° C. The pellet was discarded and the supernatant centrifuged at 40,000×g for 30 min at 4° C. This membrane pellet was washed in membrane buffer containing 50 mM Tris-HCl, pH 7.5 with 0.6 mM EDTA, 5 mM MgCl2 and protease inhibitors, recentrifuged as above and the final pellet resuspended in membrane buffer plus 250 mM sucrose and frozen at −80° C.
Radioligand Binding. Membranes were resuspended in 50 mM Tris HCl (pH 7.4), 5 mM MgCl2, 0.1% BSA. The membrane suspensions (10 μg protein per well) were incubated in a 96 well microtiter plate with [^3H]-N-alpha-methylhistamine (approximately 1 nM final concentration), test compounds at various concentrations (0.01 nM-30 μM) and scintillation proximity beads (Perkin Elmer, FlashBlueGPCR Scintillating Beads) in a final volume of 80 μl for 4 hours at room temperature, protected from light. Non-specific binding was determined in the presence of 10 μM clobenpropit. Radioligand bound to receptor, and therefore in proximity to the scintillation beads, was measured using a MicroBeta scintillation counter.

T1 sequence (Q9Y5N1 whole entry): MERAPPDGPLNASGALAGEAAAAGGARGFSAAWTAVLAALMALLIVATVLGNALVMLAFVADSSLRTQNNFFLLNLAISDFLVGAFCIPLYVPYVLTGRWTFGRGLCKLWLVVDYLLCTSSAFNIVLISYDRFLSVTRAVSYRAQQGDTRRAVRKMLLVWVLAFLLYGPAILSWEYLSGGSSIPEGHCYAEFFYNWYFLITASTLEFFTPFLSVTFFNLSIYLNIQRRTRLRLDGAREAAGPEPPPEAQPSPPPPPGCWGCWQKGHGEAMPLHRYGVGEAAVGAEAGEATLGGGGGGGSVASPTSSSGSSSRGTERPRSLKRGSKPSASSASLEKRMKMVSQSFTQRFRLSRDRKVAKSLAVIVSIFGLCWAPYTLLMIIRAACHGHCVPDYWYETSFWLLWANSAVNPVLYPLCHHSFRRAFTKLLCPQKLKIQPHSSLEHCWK

| SMILES | Ki (human H3 receptor) [nM] | melting point [°C] |
| --- | --- | --- |
| C[C@@H]1CCCN1CCCOc1ccc(-c2nnc(Cl)c3c2CCC3)cc1 [Example 17, 1-Chloro-4-{4-[3-((R)-2-metyl-pyrrolidin-1-yl)-propoxy]-phenyl}-6,7-dihydro-5H-cyclopenta[d]pyridazine] | < 50 | 65 |
| C[C@@H]1CCCN1CCCOc1ccc(-c2ccc(N3CCC(O)CC3)nn2)cc1 [Example 9, 1-(6-{4-[3-((R)-2-Methylpyrrolidin-1-yl)-propoxy]phenyl}pyridazin-3-yl)piperidin-4-ol] | < 50 | 138 to 141 |
| CSc1ccc(-c2ccc(OCCCN3CCCCC3)cc2)nn1 [Example 31, 3-Methylsulfanyl-6-[4-(3-piperidin-1-yl-propoxy)phenyl]pyridazine] | 51 to 100 | 122 |
| C[C@@H]1CCCN1CCCOc1ccc(-c2ccc(Oc3cncc(Cl)c3)nn2)cc1 [Example 19] | < 50 | 119 |
| [O-][S+](Cc1ccccc1)c1ccc(-c2ccc(OCCCN3CCCCC3)cc2)nn1 (stereo not shown) [Example 36, 3-Phenylmethanesulfinyl-6-[4-(3-piperidin-1-yl-propoxy)phenyl]pyridazine] | < 50 | 186 |
| C[C@@H]1CCCN1CCCOc1ccc(-c2ccc(Cl)nn2)cc1C#N [Example 13, 5-(6-Chloro-pyridazin-3-yl)-2-[3-((R)-2-methyl-pyrrolidin-1-yl)-propoxy]benzonitrile] | < 50 | 134 to 136 |
| C[C@@H]1CCCN1CCCOc1ccc(-c2ccc(-c3cccs3)nn2)cc1 [Example 16, 3-{4-[3-((R)-2-Methyl-pyrrolidin-1-yl)-propoxy]phenyl}-6-thiophen-2-yl-pyridazine] | < 50 | 108 |
| c1ccc(CSc2ccc(-c3ccc(OCCCN4CCCCC4)cc3)nn2)cc1 [Example 34, 3-Benzylsulfanyl-6-[4-(3-piperidin-1-yl-propoxy)-phenyl]pyridazine] | < 50 | 144 |
